Measurements as given in patent US11766447B2, “3′3′-cyclic dinucleotide analogue comprising a cyclopentanyl modified nucleotide as sting modulator” (INSTITUTE OF ORGANIC CHEMISTRY AND BIOCHEMISTRY ASCR, V.V.I., priority 2019, dated 2023).

Assays:
[1] = molecular target: T1, AQ STING (G230A-R293Q) (Homo sapiens, UniProt Q86WV6, G230A/H232R/R293Q); test: Differential scanning fluorimetry (DSF) with AQ STING; type: binding; settings: thermal shift vs apoprotein; 150 μM CDN; truncated human AQ STING 0.1 mg/ml
T1 construct: 8xHis (N, cleaved yes); SUMO (N, cleaved yes); made in house; host or cells: E. coli Rosetta-gami B (DE3)
T1 sequence (Q86WV6 140-343 G230A/H232R/R293Q): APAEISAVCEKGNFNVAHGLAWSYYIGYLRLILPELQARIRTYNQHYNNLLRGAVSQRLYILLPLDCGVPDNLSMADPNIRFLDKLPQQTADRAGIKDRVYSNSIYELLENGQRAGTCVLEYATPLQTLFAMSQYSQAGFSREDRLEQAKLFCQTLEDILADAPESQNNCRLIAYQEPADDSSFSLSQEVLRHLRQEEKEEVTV
Experimental: (§1) Purified PCR products were cleaved with restriction enzymes BamHI (cat. #R0136S, NEB, Ipswich, USA) and NotI (cat. #R0189S, NEB, Ipswich, USA) and cloned into the pSUMO vector linearized with the identical enzymes.
(§2) DNase I (cat. #D5025, Sigma Aldrich, Czech Republic) and RNase A (cat. #R6513, Sigma Aldrich, Czech Republic) were added (final concentration 50 μg/ml) together with MgCl2 (final concentration 5 mmol·l^−1) to the homogenate and bacteria were lysed using French Press G-M™ High-Pressure Cell Press Homogenizer (1500 psi, 3 cycles). […] The resin was poured into a chromatography column, washed with 50 ml buffer A (50 mmol·l^−1 TrisCl (pH 8.0), 800 mmol·l^−1 NaCl, 3 mmol·l^−1 β-mercaptoethanol; 10% glycerol; 20 mmol·l^−1 imidazol) and 8-His-SUMO tagged STING proteins were eluted with 15 ml buffer A containing 300 mmol·l^−1 imidazole. […] Proteins were concentrated with Amicon® Ultra-15 10 K device (cat. #UFC901008, Merck Millipore, Billerica, USA) and flash frozen in liquid N2.
(§3) 20 μL solutions of the reaction mixtures were pipetted in triplicates into 96 well optical reaction plates and thermal denaturation of samples were performed on real time PCR cycler (LightCycler® 480 Instrument II—Roche, Basel, Switzerland). The first derivative of the thermal denaturation curves was performed to calculate denaturing temperatures of STING-CDN complexes and STING apoproteins. The thermal shift for each CDN was calculated by subtracting the average denaturing temperature of STING apoprotein from the average denaturing temperature of STING CDN complex.

[2] = molecular target: T2, WT STING (Homo sapiens, UniProt Q86WV6, H232R); test: Differential scanning fluorimetry (DSF) with WT STING; type: binding; parameters: 8xHis (N, cleaved yes); SUMO (N, cleaved yes); made in house; host or cells: E. coli Rosetta-gami B (DE3); settings: thermal shift vs apoprotein; 150 μM CDN; truncated human WT STING 0.1 mg/ml
Experimental: as §1, §2, §3
Target sequence in this assay (Q86WV6 140-343 H232R): as the sequence (Q86WV6 140-343 G230A/H232R/R293Q) above, with A91G, Q154R counted along it

[3] = molecular target: T2, WT STING; test: Digitonin assay using 293T wtSTING-FL reporter cells; type: cell-based; parameters: host or cells: 293T (ATCC CRL-3216), stably transfected, with 4xISRE firefly luciferase reporter; settings: 293T wtSTING-FL cells, ISRE firefly luciferase; compounds in Digitonin buffer 30 minutes, then 5 hours; 8-point curve
Text: Two complementary oligonucleotides of the sequence […] […] […] […] […] The oligonucleotides were mixed in equal molar amounts, hybridized, and cleaved by restriction endonucleases HindIII (cat. #. R0104S, NEB, Ipswich, USA) and BglII (cat. #R0144S, NEB, Ipswich, USA). Ultimately, they were ligated into plasmid pGL4.27 (cat. #E6651, Promega, Madison, USA) linearized with the same enzymes. As result the sequence with four ISRE sites was placed upstream of the minimum promoter of firefly luciferase reporter gene.
After 5 minutes incubation at room temperature (RT), 250 μL of the mixture was added dropwise to the cells in one well. Cells were incubated 36 hours at 37° C. with 5% CO2, and then detached with 0.05% Trypsin and 0.22 g/L EDTA (both cat. #L0941, Biowest, Riverside, USA).
Transfected cells were seeded onto poly-D-lysine coated six well plates at density 50,000 cells per 1 cm^2 in DMEM medium with high glucose containing 10% heat inactivated FBS, 30 μg/mL blasticidin (cat. #ant-b1-05, InvivoGen, San Diego, USA), 0.06 mg/ml Penicillin G and 0.1 mg/ml Streptomycin Sulfate (both cat. #. L0018, Biowest, Riverside, USA). The medium was replenished every 3-4 days until visible colonies of cells resistant to blasticidin were formed.
Blasticidin resistant cells stably expressing WT STING were further transfected with […] plasmid following the same procedure as described above. […] Homogeneous culture of stably double transfected cells was prepared by limiting dilution of cells in 96 well plates and wells with cells were selected that originated from a single cell.
The medium was removed next day and three fold serial dilutions of compounds in Digitonin buffer containing 50 mmol·l^−1 HEPES (cat. #H3375, Sigma Aldrich, Czech Republic) pH 7.0, 100 mmol·l^−1 KCl, 3 mmol·l^−1 MgCl2, 0.1 mmol·l^−1 DTT (cat. #D0632, Sigma Aldrich, Czech Republic), 85 mmol·l^−1 Sucrose (cat. #S7903, Sigma Aldrich, Czech Republic), 0.2% BSA (cat. #A2153, Sigma Aldrich, Czech Republic), 1 mmol·l^−1 ATP (cat. #A1852, Sigma Aldrich, Czech Republic), 0.1 mmol·l^−1 GTP (cat. #G8877, Sigma Aldrich, Czech Republic), and 10 μg/mL Digitonin A (cat. #D141, Sigma Aldrich, Czech Republic) were added to the cells. The buffer was removed after 30 minutes incubation at 37° C. with 5% CO2, the cells were washed once with 100 μl of cultivation medium, and 100 μl of medium was added to each well. The plates with cells were incubated for 5 hours at 37° C. with 5% CO2, 50 μl of the medium was removed and 30 μl of ONE-Glo™ Luciferase Assay System reagent (cat. #E6120, Promega, Madison, USA) was added to each well. Luminescence was read on Synergy H1 (Biotek, Winooski, USA). GraphPad Prism (La Jolla, USA) was used to calculate the 50% effective concentration ([…] from an 8-point dose-response curve.
Target sequence in this assay (Q86WV6 whole entry H232R, the tested form may be a part): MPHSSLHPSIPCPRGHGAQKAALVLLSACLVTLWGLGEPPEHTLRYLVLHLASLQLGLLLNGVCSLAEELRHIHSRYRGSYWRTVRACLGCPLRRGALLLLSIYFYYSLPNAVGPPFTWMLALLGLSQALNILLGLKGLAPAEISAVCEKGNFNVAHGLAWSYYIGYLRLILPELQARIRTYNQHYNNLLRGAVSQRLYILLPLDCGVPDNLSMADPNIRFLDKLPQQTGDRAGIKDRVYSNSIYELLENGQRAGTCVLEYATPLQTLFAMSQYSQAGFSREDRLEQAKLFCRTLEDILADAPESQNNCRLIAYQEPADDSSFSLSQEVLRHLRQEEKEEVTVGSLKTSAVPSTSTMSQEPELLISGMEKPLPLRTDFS

| Structure (SMILES) | DSF ΔTm (° C.) AQ STING [1] [°C] | DSF ΔTm (° C.) WT STING [2] [°C] | EC50 [3] [µM] | ΔTm at 150 µM [1] [°C] | ΔTm at 150 µM [2] [°C] |
| --- | --- | --- | --- | --- | --- |
| Nc1nc2c(ncn2[C@@H]2C[C@@H]3COP(=O)(O)OC4C(F)[C@H](n5cnc6c(N)ncnc65)O[C@@H]4COP(=O)(O)OC3C2O)c(=O)[nH]1 (single isomer, unassigned) [Compound 105] | 7.0 | 0.8 | 1.6 |  |  |
| Nc1ncnc2c1ncn2[C@@H]1O[C@@H]2COP(=O)(O)OC3C(O)[C@H](n4cnc5c(=O)[nH]cnc54)C[C@@H]3COP(=O)(O)OC2C1F (stereo partly drawn) [Compound 107, 9-((2R,3R,3aR,7aR,9R,10S,10aR,14aR)-2-(6-amino-9H-purin-9-yl)-3-fluoro-5,10,12-trihydroxy-5,12-dioxidodecahydro-2H-cyclopenta[d]furo[3,2-j][1,3,7,9]tetraoxa[2,8]diphosphacyclododecin-9-yl)-1,9-dihydro-6H-purin-6-one] |  |  | 0.01 | 16.7 | 7.6 |
| Nc1nc2c(ncn2[C@@H]2C[C@@H]3COP(=O)(O)OC4C(F)[C@H](n5cnc6c(=O)[nH]c(N)nc65)O[C@@H]4COP(=O)(O)OC3C2O)c(=O)[nH]1 (stereo partly drawn) [Compound 122, 9,9′-((2R,3R,3aR,7aR,9R,10S,10aR,14aR)-3-fluoro-5,10,12-trihydroxy-5,12-dioxidodecahydro-2H-cyclopenta[d]furo[3,2-j][1,3,7,9]tetraoxa[2,8]diphosphacyclododecine-2,9-diyl)bis(2-amino-1,9-dihydro-6H-purin-6-one)] |  |  | 1.6 | 9.5 | 3.5 |
| Nc1nc2c(ncn2[C@@H]2C[C@@H]3COP(=O)(O)OC4C(O)[C@H](n5cnc6c(N)ncnc65)O[C@@H]4COP(=O)(O)OC3C2O)c(=O)[nH]1 (stereo partly drawn) [Compound 113, 2-amino-9-((2R,3S,3a5,7aR,9R,10S,10aR,14aR)-2-(6-amino-9H-purin-9-yl)-3,5,10,12-tetrahydroxy-5,12-dioxidodecahydro-2H-cyclopenta[d]furo[3,2-j][1,3,7,9]tetraoxa[2,8]diphosphacyclododecin-9-yl)-1,9-dihydro-6H-purin-6-one] |  |  | 3.6 | 7.9 | 2.1 |
| Nc1nc2c(ncn2[C@@H]2O[C@@H]3COP(=O)(O)OC4C(O)[C@H](n5cnc6c(N)ncnc65)C[C@@H]4COP(=O)(O)OC3C2O)c(=O)[nH]1 (stereo partly drawn) [Compound 108, 2-amino-9-((2R,3R,3aS,7aR,9R,10S,10aR,14aR)-9-(6-amino-9H-purin-9-yl)-3,5,10,12-tetrahydroxy-5,12-dioxidodecahydro-2H-cyclopenta[d]furo[3,2-j][1,3,7,9]tetraox[2,8]diphosphacyclododecin-2-yl)-1,9-dihydro-6H-purin-6-one] |  |  | 0.04 | 14.3 | 5.2 |
| Nc1nc2c(ncn2[C@@H]2O[C@@H]3COP(=O)(O)OC4C(O)[C@H](n5cnc6c(N)ncnc65)C[C@@H]4COP(=O)(O)OC3C2F)c(=O)[nH]1 (single isomer, unassigned) [Compound 111] | 13.7 | 4.1 | 0.07 |  |  |
| Nc1nc2c(ncn2[C@H]2CC3OP(=O)(S)OC[C@H]4O[C@@H](n5cnc6c(N)ncnc65)C(F)C4OP(=O)(S)OC[C@H]3C2)c(=O)[nH]1 (single isomer, unassigned) [Compound 129b] | 13.2 | 7.0 | 0.2 |  |  |
| Nc1nc2c(ncn2[C@@H]2C[C@@H]3COP(=O)(S)O[C@H]4[C@@H](F)[C@H](n5cnc6c(N)ncnc65)O[C@@H]4COP(=O)(S)O[C@H]3C2)c(=O)[nH]1 (single isomer, unassigned) [Compound 129c] |  | 6.4 | 0.4 | 13.2 |  |
| Nc1nc2c(ncn2[C@@H]2O[C@@H]3COP(=O)(O)OC4C(O)[C@H](n5cnc6c(N)ncnc65)C[C@@H]4COP(=O)(O)OC3C2O)c(=O)[nH]1 (stereo partly drawn) [Compound 112, 2-amino-9-((2R,3S,3aS,7aR,9R,10S,10aR,14aR)-9-(6-amino-9H-purin-9-yl)-3,5,10,12-tetrahydroxy-5,12-dioxidodecahydro-2H-cyclopenta[d]furo[3,2-j][1,3,7,9]tetraoxa[2,8]diphosphacyclododecin-2-yl)-1,9-dihydro-6H-purin-6-one] | 13.2 | 5.2 | 0.12 |  |  |
| Nc1nc2c(ncn2[C@@H]2O[C@@H]3COP(=O)(S)O[C@@H]4[C@@H](COP(=O)(S)O[C@H]3[C@H]2F)C[C@@H](n2cnc3c(N)ncnc32)[C@@H]4F)c(=O)[nH]1 (single isomer, unassigned) [Compound 132a] |  |  | 0.008 | 19.9 | 12.9 |
| Nc1nc2c(ncn2[C@H]2CC3OP(=O)(O)OC[C@H]4O[C@@H](n5cnc6c(N)ncnc65)C(F)C4OP(=O)(O)OC[C@H]3C2)c(=O)[nH]1 (stereo partly drawn) [Compound 116, (6R,8R,15R,17R)-17-(2-amino-6-oxo-6,9-dihydro-1H-purin-9-yl)-8-(6-amino-9H-purin-9-yl)-9-fluoro-3,12-dihydroxy-2,4,7,11,13-pentaoxa-3λ^5,12λ^5-diphosphatricyclo[13.3.0.0^6,10]octadecane-3,12-dione] |  |  | 0.007 | 13.1 | 8.5 |
| Nc1ncnc2c1ncn2[C@@H]1C[C@@H]2COP(=O)(S)O[C@@H]3[C@@H](COP(=O)(S)O[C@H]2[C@H]1F)C[C@@H](n1cnc2c(N)ncnc21)[C@@H]3F (single isomer, unassigned) [Compound 128a] |  |  | 0.01 | 14.8 | 9.6 |
| Nc1ncnc2c1ncn2[C@@H]1C[C@@H]2COP(=O)(O)O[C@H]3[C@@H](F)[C@H](n4cnc5c(N)ncnc54)O[C@@H]3COP(=O)(O)O[C@H]2[C@H]1O [Compound 134, (1R,6R,8R,9R,10R,15R,17R,18S)-8,17-bis(6-amino-9H-purin-9-yl)-9-fluoro-3,12,18-trihydroxy-2,4,7,11,13-pentaoxa-3λ^5,12λ^5-diphosphatricyclo[13.3.0.0^6,10]octadecane-3,12-dione] |  |  | 0.02 | 13.2 | 6.4 |
